Data from patent publication US20220183972A1, “NANOEMULSION HYDROPHOBIC […]” (VERTOSA INC., priority 2018, published 2022).

Test: Emulsion droplet size by DLS, Polyglyceryl-4 main surfactants
Type: physicochemical
Settings: 1 g cannabinoid oil, 0.7 g olive oil, 2.5 g Polyglyceryl-4 surfactant, 1.5 g sunflower lecithin, 40 g water, 80% amplitude

Point of comparison: Polyglyceryl-4 Caprate, “final emulsion droplet average size” value 365 nm. Against it:
- Polyglyceryl-4 Isostearate — higher, 371 nm
- Polyglyceryl-4 Oleate — higher, 506 nm

Test: not given
Settings: Span surfactants, Example 10; cited from earlier work

Point of comparison: Span 80, HLB 4.3. Against it:
- Span 40 — higher, 6.7
- Span 60 — higher, 4.7
- Span 120 — higher, 4.7

Same assay, conditions: Table 1; cited from earlier work

Point of comparison: Vitamin E TPGS 200, HLB 6.3. Against it:
- Polyglyceryl-6 Stearate — higher, 9
- Polyglyceryl-6 oleate — higher, 9
- Tween 81 — higher, 10
- Vitamin E TPGS 300 — higher, 8.2
- Vitamin E TPGS 2000 — higher, 16.5
- Vitamin E TPGS 4000 — higher, 18.1

Test: not given
Settings: upon eating cannabis; cited from earlier work

For `CCCCCc1cc(O)c2c(c1)OC(C)(C)[C@@H]1CCC(C)=C[C@@H]21` [THC, Tetrahydrocannabinol], the THC absorbed is listed as 8-15%.

Same assay, conditions: upon smoking cannabis; cited from earlier work

In the case of `CCCCCc1cc(O)c2c(c1)OC(C)(C)[C@@H]1CCC(C)=C[C@@H]21` [THC, Tetrahydrocannabinol], the “THC absorbed by lung” value is given as 2-45%.
